# US10676458B2, “Antidiabetic bicyclic compounds” (Merck Sharp & Dohme Corp., priority 2016, dated 2020)
# Target: human GPR40 (Homo sapiens (Human), UniProt O14842)
# Assay: Inositol Phosphate Turnover (IP1) Assay
# Assay type: cell-based
# Conditions: HEK cells stably expressing human GPR40; 60 min incubation; CisBio IP-One kit
# Method: Human GPR40 stable cell-lines were generated in HEK cells. The expression plasmids were transfected using lipofectamine (Life Technologies) following manufacturer's instructions. Stable cell-lines were generated following drug selection and single cell cloning.
# The assay was performed in 384-well format. HEK cells stably expressing human GPR40 were plated at 7500 cells per well in growth medium (DMEM/10% fetal calf serum). Cell plates were then incubated 16 hours at 37 degrees in a 5% CO2 incubator. Measurement of Inositol Phosphate Turnover (IP1) was performed using the CisBio IP-One kit (Part number 62IPAPEB). After the 16 hour incubation, the growth media was removed by centrifugation using the BlueWasher (AusWasher GUI Ver. v1.0.1.8) Protocol #21-“Light Dry” and 10 ul of stimulation buffer (prepared as described in the kit) was added to each well. In a separate plate, compounds were diluted in DMSO (200-fold over the final concentration in the assay well) and 50 nl was acoustically transferred to the appropriate well in the assay cell plate. The plates were then incubated for 60 minutes at 37 degrees in a 5% CO2 incubator. 10 ul of detection buffer (also prepared as described in the IP-One kit) was added to each well and the plates were incubated at room temperature for 60 minutes in the dark. The plates were then read in a Perkin Elmer EnVision or equivalent reader able to measure FRET. Fluorescent ratio of emission at 665 and 620 nm was then converted to IP1 concentration by back calculating from an IP1 standard curve prepared at the time of the assay. Data was normalized to % activity using a reference compound and EC50s determined using a standard 4-paramter fit.
# Sequence of human GPR40 (O14842 whole entry): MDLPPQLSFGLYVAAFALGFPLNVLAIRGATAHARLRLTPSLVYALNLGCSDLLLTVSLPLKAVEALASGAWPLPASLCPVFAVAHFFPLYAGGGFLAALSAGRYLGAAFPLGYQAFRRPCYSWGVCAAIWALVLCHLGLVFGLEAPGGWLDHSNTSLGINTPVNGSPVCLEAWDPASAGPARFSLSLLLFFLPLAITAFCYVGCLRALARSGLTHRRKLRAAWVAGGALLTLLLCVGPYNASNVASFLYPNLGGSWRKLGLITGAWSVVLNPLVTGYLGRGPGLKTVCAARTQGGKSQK
row,SMILES,EC50 [nM]
1,"C[C@H](C(=O)O)[C@H](c1ccc2c(c1)NC(C1CCN(Cc3cc(C(F)(F)F)ccc3C(F)(F)F)CC1)CO2)C1CC1 (single isomer, unassigned) [Example 2, Sodium (2S,3S)-3-((R or S)-3-(1-(2,5-Bis(trifluoromethyl)-benzyl)piperidin-4-yl)-3,4-dihydro-2H-benzo[b][1,4]oxazin-6-yl)-3-cyclopropyl-2-methyl propanoate]",388
2,"C[C@H](C(=O)O)[C@H](c1ccc2c(c1)NC(C1CCN(Cc3cc(C(F)(F)F)ccc3C(F)(F)F)CC1)CO2)C1CC1 (single isomer, unassigned) [Example 3, Sodium (2S,3R)-methyl 3-((S or R)-3-(1-(2,5-bis(trifluoro-methyl)-benzyl)-piperidin-4-yl)-3,4-dihydro-2H-benzo[b]-[1,4]oxazin-6-yl)-3-cyclopropyl-2-methylpropanoate]",642
3,"C[C@H](C(=O)O)[C@H](c1ccc2c(c1)N(C)C(C1CCN(Cc3cc(C(F)(F)F)ccc3C(F)(F)F)CC1)CO2)C1CC1 (single isomer, unassigned) [Example 5, Sodium (2S,3S)-3-((S or R)-3-(1-(2,5-bis(trifluoro-methyl)-benzyl)piperidin-4-yl)-4-methyl-3,4-dihydro-2H-benzo[b]-[1,4]oxazin-6-yl)-3-cyclopropyl-2-methyl propanoate]",2100
4,"C[C@H](C(=O)O)[C@H](c1ccc2c(c1)NC(C1CCN(Cc3cc(C(F)(F)F)ccc3C(F)(F)F)CC1)CC2)C1CC1 (single isomer, unassigned) [Example 7, Sodium (2S,3R)-3-((S or R)-2-(1-(2,5-bis(tri-fluoromethyl)-benzyl)-piperidin-4-yl)-1,2,3,4-tetrahydroquin-olin-7-yl)-3-cyclo-propyl-2-methyl propanoate]",99
5,"C[C@H](C(=O)O)[C@H](c1ccc2c(c1)N(C)C(C1CCN(Cc3cc(C(F)(F)F)ccc3C(F)(F)F)CC1)CC2)C1CC1 (single isomer, unassigned) [Example 9, (2S,3R)-3-((S or R)-2-(1-(2,5-bis(trifluoromethyl)-benzyl)piperidin-4-yl)-1-methyl-1,2,3,4-tetrahydroquinolin-7-yl)-3-cyclopropyl-2-methyl propanoic acid]",289
6,"COc1ccc(F)c(-c2ccc(C3CCc4ccc([C@H](C5CC5)[C@H](C)C(=O)O)cc4N3)cc2)c1 (single isomer, unassigned) [Example 12, (2S,3R)-3-cyclopropyl-3-((S or R)-2-(2′-fluoro-5′-methoxy-[1,1′-biphenyl]-4-yl)-1,2,3,4-tetrahydroquinolin-7-yl)-2-methylpropanoic acid]",0.2
7,"COc1ccc(F)c(-c2ccc(C3CCc4ccc([C@H](C5CC5)[C@H](C)C(=O)O)cc4N3C)cc2)c1 (single isomer, unassigned) [Example 14, (2S,3R)-3-cyclopropyl-3-((R or S)-2-(2′-fluoro-5′-methoxy-[1,1′-biphenyl]-4-yl)-1-methyl-1,2,3,4-tetrahydroquinolin-7-yl)-2-methylpropanoic acid]",1
8,"COc1ccc(F)c(-c2ccc(C3CCc4ccc([C@H](C5CC5)[C@H](C)C(=O)O)cc4N3C)cc2)c1 (single isomer, unassigned) [Example 15, (2S,3R)-3-cyclopropyl-3-((S or R)-2-(2′-fluoro-5′-methoxy-[1,1′-biphenyl]-4-yl)-1-methyl-1,2,3,4-tetrahydroquinolin-7-yl)-2-methylpropanoic acid]",12
9,"COc1ccc(F)c(-c2ccc(C3COc4ccc([C@H](C5CC5)[C@H](C)C(=O)O)cc4N3)cc2)c1 (single isomer, unassigned) [Example 17, Sodium (2S,3R)-3-cyclopropyl-3-((R or S)-3-(2′-fluoro-5′-methoxy-[1,1′-biphenyl]-4-yl)-3,4-dihydro-2H-benzo[b][1,4]oxazin-6-yl)-2-methyl propanoate]",10
10,"COc1ccc(F)c(-c2ccc(C3COc4ccc([C@H](C5CC5)[C@H](C)C(=O)O)cc4N3C)cc2)c1 (single isomer, unassigned) [Example 20, Sodium (2S,3R)-3-cyclopropyl-3-((R or S)-3-(2′-fluoro-5′-methoxy-[1,1′-biphenyl]-4-yl)-4-methyl-3,4-dihydro-2H benzo-[b][1,4]oxazin-6-yl)-2-methyl propanoate]",0.8
11,"COc1ccc(F)c(-c2ccc(C3COc4ccc([C@H](C5CC5)[C@H](C)C(=O)O)cc4N3C)cc2)c1 (single isomer, unassigned) [Example 21, Sodium (2S,3R)-3-cyclopropyl-3-((S or R)-3-(2′-fluoro-5′-methoxy-[1,1′-biphenyl]-4-yl)-4-methyl-3,4-dihydro-2H-benzo[b][1,4]oxazin-6-yl)-2-methyl propanoate]",12
12,"C[C@H](C(=O)O)[C@H](c1ccc2c(c1)CN(C1CCN(Cc3cc(C(F)(F)F)ccc3C(F)(F)F)CC1)CC2)C1CC1 [Example 1, (2S,3R)-3-(2-(1-(2,5-bis(Trifluoromethyl)benzyl)piperidin-4-yl)-1,2,34-tetrahydroisoquinolin-7-yl)-3-cyclopropyl-2-methylpropanoic acid]",611

# The remaining compounds from weak to strong by EC50, led by results:
row,EC50 [nM],SMILES
1,4700,"C[C@H](C(=O)O)C(c1ccc2c(c1)N(C)C(C1CCN(Cc3cc(C(F)(F)F)ccc3C(F)(F)F)CC1)CO2)C1CC1 (single isomer, unassigned) [Example 4, Sodium (2S,3S)-3-((R or S)-3-(1-(2,5-bis(trifluoromethyl)benzyl)piperidin-4-yl)-4-methyl-3,4-di-hydro-2H-benzo[b][1,4]oxazin-6-yl)-3-cyclopropyl-2-methylpropanoate]"
2,439,"C[C@H](C(=O)O)[C@H](c1ccc2c(c1)N(C)C(C1CCN(Cc3cc(C(F)(F)F)ccc3C(F)(F)F)CC1)CC2)C1CC1 (single isomer, unassigned) [Example 8, (2S,3R)-3-((R or S)-2-(1-(2,5-bis(trifluoromethyl)benzyl)piperidin-4-yl)-1-methyl-1,2,3,4-tetrahydroquinolin-7-yl)-3-cyclopropyl-2-methylpropanoic acid]"
3,35,"C[C@H](C(=O)O)[C@H](c1ccc2c(c1)NC(C1CCN(Cc3cc(C(F)(F)F)ccc3C(F)(F)F)CC1)CC2)C1CC1 (single isomer, unassigned) [Example 6, Sodium (2S,3R)-3-((R or S)-2-(1-(2,5-bis(trifluoromethyl)benzyl)piperidin-4-yl)-1,2,3,4-tetrahydroquinolin-7-yl)-3-cyclopropyl-2-methylpropanoate]"
4,0.8,"COc1ccc(F)c(-c2ccc(C3COc4ccc([C@H](C5CC5)[C@H](C)C(=O)O)cc4N3)cc2)c1 (single isomer, unassigned) [Example 18, Sodium (2S,3R)-3-cyclopropyl-3-((S or R)-3-(2′-fluoro-5′-methoxy-[1,1′-biphenyl]-4-yl)-3,4-dihydro-2H-benzo[b][1,4]oxazin-6-yl)-2-methyl propanoate]"
5,0.79,"COc1ccc(F)c(-c2ccc(C3CCc4ccc([C@H](C5CC5)[C@H](C)C(=O)O)cc4N3)cc2)c1 (single isomer, unassigned) [Example 11, Sodium (2S,3R)-3-cyclopropyl-3-((R or S)-2-(2′-fluoro-5′-methoxy-[1,1′-biphenyl]-4-yl)-1,2,3,4-tetrahydroquinolin-7-yl)-2-methylpropanoate]"
